Read-outs that look alike come from different tables or passages of the source. Numbered stars: 1 amine (or outer) side, 2 acyl side, 3 side chain; on linkers, the order of the positions; unused ones are H or OH. Bridge positions count the residues as written; N and C are the ends. Square brackets hold non-standard residues; d marks the D form. Peptide text beside a SMILES is read from it. I, II: the chains in the order shown. * marks the point of attachment. X1 = CC(C)CCC[C@@H](C)[C@H]1CC[C@H]2[C@@H]3CC=C4C[C@@H](OCCN(CCNC(=O)CCOCCOCCOCCOCCNC(=O)CCCN5C(=O)CC([*:1])C5=O)CCNC(=O)CCOCCOCCOCCOCCNC(=O)CCCN5C(=O)CC([*:2])C5=O)CC[C@]4(C)[C@H]3CC[C@]12C; X2 = O=C(CCN1C(=O)CC([*:1])C1=O)NCCOCCOCCOCCOCCOCCOCCOCCOCCOCCOCCOCCNC(=O)CCN1C(=O)CC([*:2])C1=O; Cbz = O=C(OCc1ccccc1)*
Columns and labels:
[1] = test system: viral glycoproteins (H and F); CD150; assay: beta-galactosidase complementation-based fusion assay, CD150 target cells; settings: for IC90: read-out: CD150 IC90
[2] = biological target: viral glycoproteins (H and F); Nectin-4 (Measles virus, UniProt Q786F3); assay: beta-galactosidase complementation-based fusion assay, Nectin-4 target cells
[3] = biological target: measles virus (MeV) fusion protein F, wild type, expressed on cells (measles virus) (UniProt Q786F3); assay: cell-based or functional assay
[4] = biological target: measles virus (MeV) fusion protein F, wild type, expressed on cells (measles virus) (UniProt Q786F3); assay: cell-based or functional assay; remark: listed apart in the source
[5] = Nectin4 IC50, Table 3 (extended version)
[6] = IC50, Table 2 (salient peptides), Nectin-4 target cells

With `CC[C@H](C)[C@H](NC(=O)[C@H](C)NC(=O)[C@H](CC(N)=O)NC(=O)CNC(=O)[C@H](CC(C)C)NC(=O)[C@H](CC(N)=O)NC(=O)[C@@H](NC(=O)CNC(=O)[C@@H](NC(=O)[C@H](CC(=O)O)NC(=O)[C@H](CC(C)C)NC(=O)[C@H](CCCNC(=N)N)NC(=O)[C@H](CCC(=O)O)NC(=O)[C@H](CC(C)C)NC(=O)[C@H](CO)NC(=O)[C@@H](NC(=O)[C@@H]1CCCN1C(=O)[C@@H]1CCCN1C(=O)CNC(=O)[C@H](CO)NC(=O)CNC(=O)[C@H](CO)NC(=O)CNC(=O)CNC(=O)[C@H](Cc1ccccc1)NC(=O)[C@@H](Cc1ccccc1)NC(=O)OCc1ccccc1)[C@@H](C)CC)C(C)C)[C@@H](C)O)C(=O)N[C@@H](C)C(=O)N[C@@H](CCCCN)C(=O)N[C@@H](CC(C)C)C(=O)N[C@@H](CCC(=O)O)C(=O)N[C@@H](CC(=O)O)C(=O)N[C@@H](C)C(=O)N[C@@H](CCCCN)C(=O)N[C@@H](CCC(=O)O)C(=O)N[C@@H](CC(C)C)C(=O)N[C@@H](CC(C)C)C(=O)N[C@@H](CCC(=O)O)C(=O)N[C@@H](CO)C(=O)N[C@@H](CO)C(=O)N[C@@H](CC(=O)O)C(=O)N[C@@H](CCC(N)=O)C(=O)N[C@H](C(=O)N[C@@H](CC(C)C)C(=O)N[C@@H](CCCNC(=N)N)C(=O)N[C@@H](CSC1CC(=O)N(CCC(=O)NCCOCCOCCOCCOCCOCCOCCOCCOCCOCCOCCOCCNC(=O)CCN2C(=O)CC(SC[C@H](NC(=O)[C@H](CCCNC(=N)N)NC(=O)[C@H](CC(C)C)NC(=O)[C@@H](NC(=O)[C@H](CCC(N)=O)NC(=O)[C@H](CC(=O)O)NC(=O)[C@H](CO)NC(=O)[C@H](CO)NC(=O)[C@H](CCC(=O)O)NC(=O)[C@H](CC(C)C)NC(=O)[C@H](CC(C)C)NC(=O)[C@H](CCC(=O)O)NC(=O)[C@H](CCCCN)NC(=O)[C@H](C)NC(=O)[C@H](CC(=O)O)NC(=O)[C@H](CCC(=O)O)NC(=O)[C@H](CC(C)C)NC(=O)[C@H](CCCCN)NC(=O)[C@H](C)NC(=O)[C@@H](NC(=O)[C@H](C)NC(=O)[C@H](CC(N)=O)NC(=O)CNC(=O)[C@H](CC(C)C)NC(=O)[C@H](CC(N)=O)NC(=O)[C@@H](NC(=O)CNC(=O)[C@@H](NC(=O)[C@H](CC(=O)O)NC(=O)[C@H](CC(C)C)NC(=O)[C@H](CCCNC(=N)N)NC(=O)[C@H](CCC(=O)O)NC(=O)[C@H](CC(C)C)NC(=O)[C@H](CO)NC(=O)[C@@H](NC(=O)[C@@H]3CCCN3C(=O)[C@@H]3CCCN3C(=O)CNC(=O)[C@H](CO)NC(=O)CNC(=O)[C@H](CO)NC(=O)CNC(=O)CNC(=O)[C@H](Cc3ccccc3)NC(=O)[C@@H](Cc3ccccc3)NC(=O)OCc3ccccc3)[C@@H](C)CC)C(C)C)[C@@H](C)O)[C@@H](C)CC)[C@@H](C)CC)C(=O)O)C2=O)C1=O)C(=O)O)[C@@H](C)CC` (some centres unmarked) [[FIP-HRC450-485]2-peg11 (no GSGSG)] the IC90 [1] was over 1000 nM and the IC90 ([2]; read-out: Nectin4 IC90) was over 1000 nM.

In the case of `CC(C)CCC[C@@H](C)[C@H]1CC[C@H]2[C@@H]3CC=C4C[C@@H](OCCN(CCNC(=O)CCOCCOCCOCCOCCNC(=O)CCCN5C(=O)CC(SC[C@H](NC(=O)CNC(=O)[C@H](Cc6ccccc6)NC(=O)[C@@H](Cc6ccccc6)NC(=O)OCc6ccccc6)C(=O)O)C5=O)CCNC(=O)CCOCCOCCOCCOCCNC(=O)CCCN5C(=O)CC(SC[C@H](NC(=O)CNC(=O)[C@H](Cc6ccccc6)NC(=O)[C@@H](Cc6ccccc6)NC(=O)OCc6ccccc6)C(=O)O)C5=O)CC[C@]4(C)[C@H]3CC[C@]12C` (some centres unmarked) [[FIP-peg4]2-chol (no GSGSG)], the IC50 [1] is reported as over 700 nM, the IC90 [1] is reported as over 1000 nM and the IC50 [2, 5] is reported as over 1000 nM. The IC90 ([2]; read-out: Nectin4 IC90) was over 1000 nM.

`CC(C)CCC[C@@H](C)[C@H]1CC[C@H]2[C@@H]3CC=C4C[C@@H](OCCN(CCNC(=O)CCOCCOCCOCCOCCNC(=O)CCCN5C(=O)CC(SC[C@H](NC(=O)CNC(=O)[C@H](CO)NC(=O)CNC(=O)[C@H](CO)NC(=O)CNC(=O)CNC(=O)[C@H](Cc6ccccc6)NC(=O)[C@@H](Cc6ccccc6)NC(=O)OCc6ccccc6)C(=O)O)C5=O)CCNC(=O)CCOCCOCCOCCOCCNC(=O)CCCN5C(=O)CC(SC[C@H](NC(=O)CNC(=O)[C@H](CO)NC(=O)CNC(=O)[C@H](CO)NC(=O)CNC(=O)CNC(=O)[C@H](Cc6ccccc6)NC(=O)[C@@H](Cc6ccccc6)NC(=O)OCc6ccccc6)C(=O)O)C5=O)CC[C@]4(C)[C@H]3CC[C@]12C` (some centres unmarked) [[FIP-peg4]2-chol] (I: Cbz-[dF]FGGSGSGC-OH / II: Cbz-[dF]FGGSGSGC-OH; linker I:9-II:9 via X1) gave an IC50 [1] of 510 ± 360 nM, an IC90 [1] of 927 ± 359 nM and an IC90 [2] of 1845 ± 16 nM. It also gave an IC50 [2, 6] of 452 ± 196 nM and an IC90 ([2]; read-out: Nectin4 IC90) of 1845 ± 16 nM.

In the case of `O=C(CCN1C(=O)CC(SC[C@H](NC(=O)CNC(=O)[C@H](Cc2ccccc2)NC(=O)[C@@H](Cc2ccccc2)NC(=O)OCc2ccccc2)C(=O)O)C1=O)NCCOCCOCCOCCOCCOCCOCCOCCOCCOCCOCCOCCNC(=O)CCN1C(=O)CC(SC[C@H](NC(=O)CNC(=O)[C@H](Cc2ccccc2)NC(=O)[C@@H](Cc2ccccc2)NC(=O)OCc2ccccc2)C(=O)O)C1=O` (some centres unmarked) [[FIP]2-peg11 (no GSGSG)], the IC50 [1] is reported as over 600 nM, the IC90 [1] is reported as over 1000 nM and the IC90 [2] is reported as over 10000 nM. For the same molecule, the IC50 [2, 6] was over 10000 nM, the IC50 [2, 5] was over 700 nM and the IC90 ([2]; read-out: Nectin4 IC90) was over 1000 nM.

`O=C(CCN1C(=O)CC(SC[C@H](NC(=O)CNC(=O)[C@H](CO)NC(=O)CNC(=O)[C@H](CO)NC(=O)CNC(=O)CNC(=O)[C@H](Cc2ccccc2)NC(=O)[C@@H](Cc2ccccc2)NC(=O)OCc2ccccc2)C(=O)O)C1=O)NCCOCCOCCOCCOCCOCCOCCOCCOCCOCCOCCOCCNC(=O)CCN1C(=O)CC(SC[C@H](NC(=O)CNC(=O)[C@H](CO)NC(=O)CNC(=O)[C@H](CO)NC(=O)CNC(=O)CNC(=O)[C@H](Cc2ccccc2)NC(=O)[C@@H](Cc2ccccc2)NC(=O)OCc2ccccc2)C(=O)O)C1=O` (some centres unmarked) [[FIP]2-peg11] (I: Cbz-[dF]FGGSGSGC-OH / II: Cbz-[dF]FGGSGSGC-OH; linker I:9-II:9 via X2) showed an IC50 [1] of over 1000 nM, an IC90 [1] of over 1000 nM and an IC50 [2, 5] of over 10000 nM. It also gave an IC90 ([2]; read-out: Nectin4 IC90) of over 10000 nM.

`CC(C)CCC[C@@H](C)[C@H]1CC[C@H]2[C@@H]3CC=C4C[C@@H](OC(=O)CCOCCOCCOCCOCCOCCOCCOCCOCCOCCOCCOCCOCCOCCOCCOCCOCCOCCOCCOCCOCCOCCOCCOCCOCCNC(=O)CSC[C@H](NC(=O)CNC(=O)[C@H](Cc5ccccc5)NC(=O)[C@@H](Cc5ccccc5)NC(=O)OCc5ccccc5)C(=O)O)CC[C@]4(C)[C@H]3CC[C@]12C` [peg24 chol [FIP] (no GSGSG)] was tested, and the IC90 [1] was 544 ± 34.8 nM and the IC90 ([2]; read-out: Nectin4 IC90) was 568 ± 186 nM.

FIP-HRC450-485 (peptide) showed an IC50, beta-galactosidase complementation-based fusion assay, Nectin-4 target cells [3] of 4240 nM and an IC90, beta-galactosidase complementation-based fusion assay, Nectin-4 target cells [4] of over 10000 nM.

FIP-HRC450-485-chol (peptide) gave an IC50, beta-galactosidase complementation-based fusion assay, Nectin-4 target cells [3] of 214 nM, an IC90, beta-galactosidase complementation-based fusion assay, Nectin-4 target cells [3] of 614 nM and an IC50, beta-galactosidase complementation-based fusion assay, Nectin-4 target cells [4] of 251 nM. For the same molecule, the IC90, beta-galactosidase complementation-based fusion assay, Nectin-4 target cells [4] was 446 nM.

Molecule FIP-HRC450-485-peg4-chol (peptide) has an IC50, beta-galactosidase complementation-based fusion assay, Nectin-4 target cells [3] of 214 nM and an IC90, beta-galactosidase complementation-based fusion assay, Nectin-4 target cells [3] of 614 nM.

With FIP-chol (peptide) the IC50, beta-galactosidase complementation-based fusion assay, Nectin-4 target cells [3] was 4000 nM, the IC90, beta-galactosidase complementation-based fusion assay, Nectin-4 target cells [3] was 7620 nM and the IC50, beta-galactosidase complementation-based fusion assay, Nectin-4 target cells [4] was over 10000 nM. It also gave an IC90, beta-galactosidase complementation-based fusion assay, Nectin-4 target cells [4] of over 10000 nM.

FIP-peg4-chol (peptide) was tested, and the IC50, beta-galactosidase complementation-based fusion assay, Nectin-4 target cells [3] was 4000 nM and the IC90, beta-galactosidase complementation-based fusion assay, Nectin-4 target cells [3] was 7620 nM.

HRC450-485 (peptide) showed an IC50, beta-galactosidase complementation-based fusion assay, Nectin-4 target cells [3] of over 10000 nM and an IC90, beta-galactosidase complementation-based fusion assay, Nectin-4 target cells [3] of over 10000 nM.

In the case of HRC450-485-chol (peptide), the IC90, beta-galactosidase complementation-based fusion assay, Nectin-4 target cells [3] is reported as over 7000 nM, the IC50, beta-galactosidase complementation-based fusion assay, Nectin-4 target cells [4] is reported as 103 nM and the IC90, beta-galactosidase complementation-based fusion assay, Nectin-4 target cells [4] is reported as over 1000 nM.

Molecule HRC450-485-peg4-chol (peptide) has an IC50, beta-galactosidase complementation-based fusion assay, Nectin-4 target cells [3] of 123 nM and an IC90, beta-galactosidase complementation-based fusion assay, Nectin-4 target cells [3] of 856 nM.
